Experimental data: patent US20070065385A1, “Cold production method for pearly lustre preparations containing alcohols” (Clariant International, Ltd., priority 2005, published 2007)

Tests used:
[1] = Degree of hydrolysis of stearoxytrimethylsilane to stearyl alcohol in ethanol/water at varying pH, by GC analysis; assay type: physicochemical; conditions: for % Hydrolysis of Stearoxytrimethylsilane to Stearyl Alcohol: 25° C., 5 wt% in 90 wt% ethanol/5 wt% D.I. water
Source text: The pearlescent effect of the present invention appears to be produced by the interaction of the siloxane compound, trimethylsilylalkylsilsesquioxane in the alcoholic hydrogel. It is believed that the trimethylsilylalkylsilsesquioxanes, such as stearoxytrimethylsilane, which is initially a liquid in anhydrous form, after dispersion in the alcoholic hydrogel, undergoes a degree of hydrolysis which results in the formation of finely dispersed crystals of pure stearyl alcohol in the alcoholic hydrogel. This process continues until the pearlescent appearance, or the desired degree of opacity is achieved. The degree of pearlescence or the density of the opacity can be controlled by controlling the amount of the siloxane and other components. The pH of the mixture influences the speed of the hydrolysis reaction. Preferably, the pH of the mixture of the alcoholic hydrogel and the trimethylsilylalkylsilsesquioxane is from 3 to 6.
The degree of hydrolysis of stearoxytrimethylsilane was determined in an ethanol/water mixture at varying pH levels ranging from 4.4 to 9.1. A mixture comprising 5 weight percent anhydrous stearoxytrimethylsilane (Available from Clariant Corp., as SILCARE 1 M71), 90 weight percent ethanol and 5 weight percent de-ionized water (D.I.) was subjected to various pH levels and the degree of hydrolysis to stearyl alcohol was determined by GC analysis.

[2] = cited from earlier work

Compound: CCCCCCCCCCCCCCCCCCO[Si](C)(C)C [Stearoxytrimethylsilane, stearoxytrimethylsilane]
- speed of hydrolysis ([1]; below a pH of 6): quickly hydrolyses
- % Hydrolysis of Stearoxytrimethylsilane to Stearyl Alcohol ([1]; pH (initial) 4.4, 2 Days): >99%
- % Hydrolysis of Stearoxytrimethylsilane to Stearyl Alcohol ([1]; pH (initial) 4.4, 14 Days): >99%
- % Hydrolysis of Stearoxytrimethylsilane to Stearyl Alcohol ([1]; pH (initial) 4.4, 15 minutes (initial)): >99%
- % Hydrolysis of Stearoxytrimethylsilane to Stearyl Alcohol ([1]; pH (initial) 5.3, 2 Days): >99%
- % Hydrolysis of Stearoxytrimethylsilane to Stearyl Alcohol ([1]; pH (initial) 5.3, 14 Days): >99%
- % Hydrolysis of Stearoxytrimethylsilane to Stearyl Alcohol ([1]; pH (initial) 5.3, 15 minutes (initial)): >99%
- % Hydrolysis of Stearoxytrimethylsilane to Stearyl Alcohol ([1]; pH (initial) 5.5, 2 Days): 97%
- % Hydrolysis of Stearoxytrimethylsilane to Stearyl Alcohol ([1]; pH (initial) 5.5, 14 Days): >99%
- % Hydrolysis of Stearoxytrimethylsilane to Stearyl Alcohol ([1]; pH (initial) 5.5, 15 minutes (initial)): 55%
- % Hydrolysis of Stearoxytrimethylsilane to Stearyl Alcohol ([1]; pH (initial) 6.2, 2 Days): 36%
- % Hydrolysis of Stearoxytrimethylsilane to Stearyl Alcohol ([1]; pH (initial) 6.2, 14 Days): 95%
- % Hydrolysis of Stearoxytrimethylsilane to Stearyl Alcohol ([1]; pH (initial) 6.2, 15 minutes (initial)): 6%
- % Hydrolysis of Stearoxytrimethylsilane to Stearyl Alcohol ([1]; pH (initial) 8.1, 2 Days): 10%
- % Hydrolysis of Stearoxytrimethylsilane to Stearyl Alcohol ([1]; pH (initial) 8.1, 14 Days): 48%
- % Hydrolysis of Stearoxytrimethylsilane to Stearyl Alcohol ([1]; pH (initial) 8.1, 15 minutes (initial)): 2%
- % Hydrolysis of Stearoxytrimethylsilane to Stearyl Alcohol ([1]; pH (initial) 9.1, 2 Days): 4%
- % Hydrolysis of Stearoxytrimethylsilane to Stearyl Alcohol ([1]; pH (initial) 9.1, 14 Days): 21%
- % Hydrolysis of Stearoxytrimethylsilane to Stearyl Alcohol ([1]; pH (initial) 9.1, 15 minutes (initial)): 2%

Compound: CCCCCCCCCCCCCCCCCCO [Stearyl alcohol]
- solubility in alcohol ([2]; alcohol): soluble
- solubility in water ([2]; water): insoluble
